We go through 27 molecules from patent US20080188502A1, “New Compounds I” (AstraZeneca AB, priority 2006, published 2008).

The structures appear in SMILES notation. Structures can show the parent of a compound that is named as a salt.

T1 sequence (P49841 whole entry): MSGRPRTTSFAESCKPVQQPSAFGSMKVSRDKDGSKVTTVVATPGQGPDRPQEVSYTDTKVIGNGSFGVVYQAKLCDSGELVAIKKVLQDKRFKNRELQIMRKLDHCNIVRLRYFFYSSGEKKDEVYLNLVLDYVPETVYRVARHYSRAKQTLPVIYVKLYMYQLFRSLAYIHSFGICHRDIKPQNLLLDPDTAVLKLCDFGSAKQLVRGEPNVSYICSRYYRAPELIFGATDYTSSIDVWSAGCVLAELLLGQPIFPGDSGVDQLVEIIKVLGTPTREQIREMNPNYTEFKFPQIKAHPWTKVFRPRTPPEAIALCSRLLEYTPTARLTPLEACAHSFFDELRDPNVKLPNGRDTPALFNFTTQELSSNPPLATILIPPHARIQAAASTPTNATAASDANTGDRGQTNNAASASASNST

The experiment addresses T1, recombinant human GSK3β (Homo sapiens, UniProt P49841).
T1 construct: purchased Dundee University, UK
As to the kind of experiment: GSK3β Scintillation Proximity Assay (ATP competition). As to conditions: inhibition constants calculated with Km of ATP for GSK3β of 20 μM; 1 μM ATP, 1 μM biotinylated peptide substrate. The format is biochemical. As to the method:
Determination of ATP Competition in Scintillation Proximity GSK3β Assay.
GSK3β Scintillation Proximity Assay.
The competition experiments were carried out in duplicate with 10 different concentrations of the inhibitors in clear-bottom microtiter plates (Wallac, Finland). A biotinylated peptide substrate, Biotin-Ala-Ala-Glu-Glu-Leu-Asp-Ser-Arg-Ala-Gly-Ser(PO3H2)-Pro-Gln-Leu (AstraZeneca, Lund), was added at a final concentration of 1 μM in an assay buffer containing 1 mU recombinant human GSK3β (Dundee University, UK), 12 mM morpholinepropanesulfonic acid (MOPS), pH 7.0, 0.3 mM EDTA, 0.01% β-mercaptoethanol, 0.004% Brij 35 (a […] detergent), 0.5% glycerol and 0.5 μg BSA/25 μl. The reaction was initiated by the addition of 0.04 μCi [γ-^33P]ATP (Amersham, UK) and unlabelled ATP at a final concentration of 1 μM and assay volume of 25 μl. After incubation for 20 minutes at room temperature, each reaction was terminated by the addition of 25 μl stop solution containing 5 mM EDTA, 50 μM ATP, 0.1% Triton X-100 and 0.25 mg streptavidin coated Scintillation Proximity Assay (SPA) beads (Amersham, UK). After 6 hours the radioactivity was determined in a liquid scintillation counter (1450 MicroBeta Trilux, Wallac). The inhibition curves were analysed by non-linear regression using GraphPad Prism, USA. The Km value of ATP for GSK3β, used to calculate the inhibition constants (Ki) of the various compounds, was 20 μM.
The term Ki denotes the dissociation constant of the complex between target and ligand, obtained from inhibition or displacement. For the molecule `Cc1ncc(-c2nc(Nc3ccc(S(C)(=O)=O)cn3)ncc2F)n1C1CCOCC1` [Example 1, 5-Fluoro-N-[5-(methylsulfonyl)pyridin-2-yl]-4-[2-methyl-1-(tetrahydro-2H-pyran-4-yl)-1H-imidazol-5-yl]pyrimidin-2-amine hydrochloride], the Ki was 468 nM.
Then `Cc1ncc(-c2nc(Nc3ccc(S(C)(=O)=O)nc3)ncc2F)n1C1CCOCC1` [Example 2, 5-Fluoro-N-[6-(methylsulfonyl)pyridin-3-yl]-4-[2-methyl-1-(tetrahydro-2H-pyran-4-yl)-1H-imidazol-5-yl]pyrimidin-2-amine], with 40 nM; and `Cc1ncc(-c2nc(Nc3ccc(C(=O)N4CCN(C)CC4)cn3)ncc2F)n1C1CCOCC1` [Example 3, 5-Fluoro-N-{5-[(4-methylpiperazin-1-yl)carbonyl]pyridin-2-yl}-4-[2-methyl-1-(tetrahydro-2H-pyran-4-yl)-1H-imidazol-5-yl]pyrimidin-2-amine], with 661 nM; and `Cc1ncc(-c2nc(Nc3ccc(C(=O)N4CCN(C)CC4)nc3)ncc2F)n1C1CCOCC1` [Example 4, 5-Fluoro-N-{6-[(4-methylpiperazin-1-yl)carbonyl]pyridin-3-yl}-4-[2-methyl-1-(tetrahydro-2H-pyran-4-yl)-1H-imidazol-5-yl]pyrimidin-2-amine], with 63 nM.
Then `Cc1ncc(-c2nc(Nc3ccc(C(=O)N4CCC4)nc3)ncc2F)n1C1CCOCC1` [Example 5, N-[6-(Azetidin-1-ylcarbonyl)pyridin-3-yl]-5-fluoro-4-[2-methyl-1-(tetrahydro-2H-pyran-4-yl)-1H-imidazol-5-yl]pyrimidin-2-amine], with 70 nM; and `CCOc1ccc(Nc2ncc(F)c(-c3cnc(C)n3C3CCOCC3)n2)cn1` [Example 10, (6-Ethoxy-pyridin-3-yl)-{5-fluoro-4-[2-methyl-3-(tetrahydro-pyran-4-yl)-3H-imidazol-4-yl]-pyrimidin-2-yl}-amine], with 45 nM.
Then `COc1ncc(Nc2ncc(F)c(-c3cnc(C)n3C3CCOCC3)n2)cn1` [Example 11, {5-Fluoro-4-[2-methyl-3-(tetrahydro-pyran-4-yl)-3H-imidazol-4-yl]-pyrimidin-2-yl}-(2-methoxy-pyrimidin-5-yl)-amine], with 60 nM; and `CCCN(C(=O)c1ccc(Nc2ncc(F)c(-c3cnc(C)n3C3CCOCC3)n2)cn1)C(C)CC` (stereo not drawn) [Example 12, N-Butan-2-yl-5-[[5-fluoro-4-[2-methyl-3-(oxan-4-yl)imidazol-4-yl]pyrimidin-2-yl]amino]-N-propyl-pyridine-2-carboxamide], with 29 nM; and `Cc1ncc(-c2nc(Nc3ccc(C(=O)N4CCC(F)(F)C4)nc3)ncc2F)n1C1CCOCC1` [Example 13, (3,3-Difluoropyrrolidin-1-yl)-[5-[[5-fluoro-4-[2-methyl-3-(oxan-4-yl)imidazol-4-yl]pyrimidin-2-yl]amino]pyridin-2-yl]methanone], with 34 nM.
In the case of `Cc1ncc(-c2nc(Nc3ccc(C(=O)N4CCCC(C)C4)nc3)ncc2F)n1C1CCOCC1` (stereo not drawn) [Example 14, [5-[[5-Fluoro-4-[2-methyl-3-(oxan-4-yl)imidazol-4-yl]pyrimidin-2-yl]amino]pyridin-2-yl]-(3-methyl-1-piperidyl)methanone], the Ki is 16 nM.
The figure for `Cc1ncc(-c2nc(Nc3ccc(C(=O)N(C)C(C)C)nc3)ncc2F)n1C1CCOCC1` [Example 15, 5-[[5-Fluoro-4-[2-methyl-3-(oxan-4-yl)imidazol-4-yl]pyrimidin-2-yl]amino]-N-methyl-N-propan-2-yl-pyridine-2-carboxamide] is 43 nM; for `Cc1ncc(-c2nc(Nc3ccc(C(=O)N4CCC(c5ccc(F)cc5)CC4)nc3)ncc2F)n1C1CCOCC1` [Example 16, [5-[[5-Fluoro-4-[2-methyl-3-(oxan-4-yl)imidazol-4-yl]pyrimidin-2-yl]amino]pyridin-2-yl]-[4-(4-fluorophenyl)-1-piperidyl]methanone] it is 9 nM; for `CCN1CCN(C(=O)c2ccc(Nc3ncc(F)c(-c4cnc(C)n4C4CCOCC4)n3)cn2)CC1` [Example 17, (4-Ethylpiperazin-1-yl)-[5-[[5-fluoro-4-[2-methyl-3-(oxan-4-yl)imidazol-4-yl]pyrimidin-2-yl]amino]pyridin-2-yl]methanone] it is 50 nM.
Then `CCCCN1CCN(C(=O)c2ccc(Nc3ncc(F)c(-c4cnc(C)n4C4CCOCC4)n3)cn2)CC1` [Example 18, (4-Butylpiperazin-1-yl)-[5-[[5-fluoro-4-[2-methyl-3-(oxan-4-yl)imidazol-4-yl]pyrimidin-2-yl]amino]pyridin-2-yl]methanone], with 47 nM; and `CCN(C(=O)c1ccc(Nc2ncc(F)c(-c3cnc(C)n3C3CCOCC3)n2)cn1)C(C)C` [Example 19, N-Ethyl-5-[[5-fluoro-4-[2-methyl-3-(oxan-4-yl)imidazol-4-yl]pyrimidin-2-yl]amino]-N-propan-2-yl-pyridine-2-carboxamide], with 25 nM; and `Cc1ncc(-c2nc(Nc3ccc(C(=O)N4CCCCC4)nc3)ncc2F)n1C1CCOCC1` [Example 20, [5-[[5-Fluoro-4-[2-methyl-3-(oxan-4-yl)imidazol-4-yl]pyrimidin-2-yl]amino]pyridin-2-yl]-(1-piperidyl)methanone], with 26 nM.
The figure for `Cc1ncc(-c2nc(Nc3ccc(C(=O)N4CCN(C(C)C)CC4)nc3)ncc2F)n1C1CCOCC1` [Example 21, [5-[[5-Fluoro-4-[2-methyl-3-(oxan-4-yl)imidazol-4-yl]pyrimidin-2-yl]amino]pyridin-2-yl]-(4-propan-2-ylpiperazin-1-yl)methanone] is 90 nM; for `Cc1ncc(-c2nc(Nc3ccc(C(=O)N(C(C)C)C(C)C)nc3)ncc2F)n1C1CCOCC1` [Example 22, 5-[[5-Fluoro-4-[2-methyl-3-(oxan-4-yl)imidazol-4-yl]pyrimidin-2-yl]amino]-N,N-dipropan-2-yl-pyridine-2-carboxamide] it is 67 nM.
As to `Cc1ncc(-c2nc(Nc3ccc(C(=O)N4C(C)CCCC4C)nc3)ncc2F)n1C1CCOCC1` (stereo not drawn) [Example 23, (2,6-Dimethyl-1-piperidyl)-[5-[[5-fluoro-4-[2-methyl-3-(oxan-4-yl)imidazol-4-yl]pyrimidin-2-yl]amino]pyridin-2-yl]methanone], the Ki was 41 nM.
Regarding `CCCN(CCC)C(=O)c1ccc(Nc2ncc(F)c(-c3cnc(C)n3C3CCOCC3)n2)cn1` [Example 24, 5-[[5-Fluoro-4-[2-methyl-3-(oxan-4-yl)imidazol-4-yl]pyrimidin-2-yl]amino]-N,N-dipropyl-pyridine-2-carboxamide], the inhibitory constant (Ki) was 24 nM.
Then `COC1CCN(C(=O)c2ccc(Nc3ncc(F)c(-c4cnc(C)n4C4CCOCC4)n3)cn2)CC1` [Example 25, [5-[[5-Fluoro-4-[2-methyl-3-(oxan-4-yl)imidazol-4-yl]pyrimidin-2-yl]amino]pyridin-2-yl]-(4-methoxy-1-piperidyl)methanone], with 28 nM; and `CCN(C)C(=O)c1ccc(Nc2ncc(F)c(-c3cnc(C)n3C3CCOCC3)n2)cn1` [Example 26, N-Ethyl-5-[[5-fluoro-4-[2-methyl-3-(oxan-4-yl)imidazol-4-yl]pyrimidin-2-yl]amino]-N-methyl-pyridine-2-carboxamide], with 31 nM; and `Cc1ncc(-c2nc(Nc3ccc(C(=O)N4CCC(C)CC4)nc3)ncc2F)n1C1CCOCC1` [Example 27, [5-[[5-Fluoro-4-[2-methyl-3-(oxan-4-yl)imidazol-4-yl]pyrimidin-2-yl]amino]pyridin-2-yl]-(4-methyl-1-piperidyl)methanone], with 28 nM.
Then `Cc1ncc(-c2nc(Nc3ccc(C(=O)N4CCN(Cc5ccccc5)CC4)nc3)ncc2F)n1C1CCOCC1` [Example 28, (4-Benzylpiperazin-1-yl)-[5-[[5-fluoro-4-[2-methyl-3-(oxan-4-yl)imidazol-4-yl]pyrimidin-2-yl]amino]pyridin-2-yl]methanone], with 19 nM.
Turning to `Cc1ncc(-c2nc(Nc3ccc(C(=O)N4CCC(F)(F)CC4)nc3)ncc2F)n1C1CCOCC1` [Example 29, (4,4-Difluoro-1-piperidyl)-[5-[[5-fluoro-4-[2-methyl-3-(oxan-4-yl)imidazol-4-yl]pyrimidin-2-yl]amino]pyridin-2-yl]methanone], the inhibitory constant (Ki) is 34 nM.
Then `Cc1ncc(-c2nc(Nc3ccc(C(=O)N(Cc4ccccc4)C(C)C)nc3)ncc2F)n1C1CCOCC1` [Example 30, N-Benzyl-5-[[5-fluoro-4-[2-methyl-3-(oxan-4-yl)imidazol-4-yl]pyrimidin-2-yl]amino]-N-propan-2-yl-pyridine-2-carboxamide], with 17 nM; and `Cc1ncc(-c2nc(Nc3ccc(C(=O)N(C)CC(C)C)nc3)ncc2F)n1C1CCOCC1` [Example 31, 5-[[5-Fluoro-4-[2-methyl-3-(oxan-4-yl)imidazol-4-yl]pyrimidin-2-yl]amino]-N-methyl-N-(2-methylpropyl)pyridine-2-carboxamide], with 12 nM.
